The values below are quoted from earlier work in US20170020833A1, “METHOD FOR TREATING AND/OR PREVENTING ACNE SCARS WITH A FIXED COMBINATION OF ADAPALENE OR ITS SALTS AND BENZOYL PEROXIDE” (GALDERMA RESEARCH & DEVELOPMENT, priority 2014, published 2017).

This data set relates to procollagen, MMP-1, 3 and MMP-9 in photodamage skin. The conditions noted are these: oral or topical; leading to MMP-1, 3 and MMP-9 decrease in relation to treatment duration.

Regarding `CC1=C(/C=C/C(C)=C/C=C/C(C)=C\C(=O)O)C(C)(C)CCC1` [isotretinoin], the “Effect on UV-induced loss of procollagen” value is recorded as “protects against UV-induced loss of procollagen”.
